Assay results taken from patent US20050165225A1, “Novel cytokine isolated from an insect” (priority 2003, published 2005).
Where no end group is shown, it is not given here.

Columns and labels:
[1] = system: hemocytes of a fly (Lucilia cuprina); experiment: Hemocyte aggregation assay; format: cell-based; conditions: 10 nM test substance, incubated for about 20 minutes, L. cuprina larval hemocytes, microscopy (FIG. 2)
Procedure: Preparation of Hemolymph for Use in Functional Analysis
Blood (hemolymph) was taken from the 3rd instar flies (Lucilia cuprina) after 24 to 36 hours from molting in an anti-coagulant solution (98 mM NaOH, 186 mM NaCl, 17 mM Na2 EDTA and 41 mM citric acid, pH 4.5). Hemolymph was obtained as sediment by centrifuging at 400 g for one minute, suspended in the anti-coagulation solution, incubated at 4° C. for 30 minutes, and subjected to centrifugal separation at 400 g for one minute to collect hemolymph. The hemolymph thus collected was resuspended in Ex-cell 400 medium (manufactured by JRH bioscience, USA)
Using hemolymph prepared above, an ability of a peptide according to the present invention for aggregating hemocytes was evaluated. 5 μl of a test substance (so as to obtain a final concentration of 10 nM) and 30 μl of a blood cell suspension solution were delivered to 96 wells of a culture plate so as to obtain a cell concentration of 1×10^4 cells/well. As the test substance, a peptide according to the present invention (a final concentration of 10 nM) or bovine serum albumin (a final concentration of 10 nM) as a control was used. The mixture was observed by an inverted phase-contrast microscope (Olympus IX-70) to detect hemocyte aggregation.

High five cells = experiment: Cell proliferation assay ([3H] thymidine incorporation); format: cell-based, Trichoplusia ni; conditions: serum-free Grace's medium, test substance ~1,000 nM, cultured 32 hours (FIG. 3)
Procedure: Cultured insect cells of “High five” was purchased from Invitrogen (Holland) and maintained in Grace's medium containing 5% fetus bovine serum. The cells during the exponential growth period were used in the following treatment. After the cells were cultured in a culture solution containing only Grace's medium (with no fetus bovine serum) for 2 days, they were divided into two groups. To one group (novel cytokine group), a peptide according to the present invention was added as a test substance in an amount of ˜1,000 nM. To the other group (control group), bovine serum albumin (BSA) was added as a test substance in an amount of ˜1000 nM. Both groups were cultured for 32 hours in Grace's medium containing 0.5 μCi of [^3H] thymidine. Subsequently, Both groups of cells were washed three times with a phosphate buffered saline (8 mM Na2HPO4, 1.5 mM KH2PO4, 137 mM NaCl, 2.7 mM KCL, pH 7.2). Thereafter, 100 μl of 0.3 N NaOH was added to both groups of cells to lyse the cells. The lysed cells were subjected to the liquid scintillation counter (Aloka LSC-5100 manufactured by Aloka, Japan). In this way, the radioactive count of [^3H] thymidine, which had been incorporated in the cells of each group during culturing, was determined.

Substance	hemocyte aggregation [1]	[^3H] thymidine incorporation (High five cells)
bovine serum albumin (BSA): bovine serum albumin used as a control test substance	scattered without causing aggregation	not increased
TILSAPSNCQQTDFKGRCL (cysteine pairing not given here) [19-residue peptide cytokine purified from hemolymph of Lucilia cuprina larvae]	hemocyte aggregation is observed	increased in a pepetide-concentration dependent manner
